The values below come from article PMC5507339, “Small-molecule inhibition of pyruvate phosphate dikinase targeting the nucleotide binding site” (PLoS ONE, 2017).

Experiment [1] addresses T1, PPDK from Flaveria trinervia (Flaveria trinervia, UniProt P22221).
T1 construct: His10 (N); TEV cleavage site (N); made in house; host or cells: E. coli BL21 (DE3)
T1 sequence (P22221 80-953): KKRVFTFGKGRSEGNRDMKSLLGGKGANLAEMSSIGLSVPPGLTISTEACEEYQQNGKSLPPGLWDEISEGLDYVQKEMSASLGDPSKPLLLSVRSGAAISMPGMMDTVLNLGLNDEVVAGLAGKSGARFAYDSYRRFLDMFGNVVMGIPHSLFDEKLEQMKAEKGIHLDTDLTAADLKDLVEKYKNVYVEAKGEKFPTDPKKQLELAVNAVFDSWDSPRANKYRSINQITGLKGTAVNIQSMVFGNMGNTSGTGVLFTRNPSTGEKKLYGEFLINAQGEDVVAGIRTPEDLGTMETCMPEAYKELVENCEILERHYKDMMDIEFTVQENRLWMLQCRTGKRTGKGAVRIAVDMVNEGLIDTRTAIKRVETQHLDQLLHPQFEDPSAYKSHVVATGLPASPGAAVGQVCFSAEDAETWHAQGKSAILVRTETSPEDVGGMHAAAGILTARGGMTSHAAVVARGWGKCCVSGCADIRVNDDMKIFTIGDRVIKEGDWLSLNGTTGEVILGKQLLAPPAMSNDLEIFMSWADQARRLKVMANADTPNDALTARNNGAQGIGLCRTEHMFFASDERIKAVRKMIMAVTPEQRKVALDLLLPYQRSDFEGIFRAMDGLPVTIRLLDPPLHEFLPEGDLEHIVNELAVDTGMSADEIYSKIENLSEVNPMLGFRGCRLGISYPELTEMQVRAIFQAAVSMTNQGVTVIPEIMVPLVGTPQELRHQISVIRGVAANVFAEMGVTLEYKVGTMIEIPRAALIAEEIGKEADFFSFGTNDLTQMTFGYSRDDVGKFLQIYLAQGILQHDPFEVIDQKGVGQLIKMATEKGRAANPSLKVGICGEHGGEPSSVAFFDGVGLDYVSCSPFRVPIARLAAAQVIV
The experiment can be described thus: biochemical. The following applies: for IC50: 0.2 μM PPDK, inhibitor 0-200 μM, mean ± standard error; for Residual PPDK activity relative to DMSO-treated controls: inhibitor 100 μM. The procedure:
Heterologous gene expression and purification of the recombinant PPDK were performed as described in [11]. A modified pET-16b vector (Merck, Darmstadt, GER) which contained an N-terminal histidine10 tag, followed by a TEV cleavage site and the sequence encoding for PPDK from Flaveria trinervia (EMBL X75516) was used for heterologous expression in E. coli strain BL21 (DE3). Transformed cells were grown to an OD600 of 0.6–0.8 in 2YT medium at 30°C before expression was induced by the addition of 0.1 mM isopropyl-β-D-1-thiogalactopyranoside. Cells were harvested after over night incubation at 30°C and 180 rpm. Preceding purification, cells were resuspended in lysis buffer (50 mM Tris/HCl pH 7.5, 300 mM NaCl, 10 mM imidazole, 10 mM MgSO4, 10% (w/v) glycerol, 5 mM DTT, 0.002% (w/v) phenylmethanesulfonylfluoride) and disrupted using a cell disruptor (Constant Systems). PPDK was purified using a nickel affinity chromatography column (GE Healthcare, Munich, GER). Purification (50 mM Tris/HCl pH 7.5, 300 mM NaCl, 10 mM MgSO4, 10% (w/v) glycerol, 5 mM DTT) and elution buffer (50 mM Tris/HCl pH 7.5, 300 mM NaCl, 500 mM imidazole, 10 mM MgSO4, 10% (w/v) glycerol, 5 mM DTT) were used for further purification steps. PPDK bound to the column was washed in steps of 50 mM, 150 mM and 200 mM imidazole, before final elution with 500 mM imidazole. Protein-rich fractions were pooled and a PD-10 desalting column (GE Healthcare) was used to change the elution buffer for assay buffer (100 mM Tris/HCl pH 8.0, 10 mM MgCl2, 2.5 mM KH2PO4, 6 mM glucose-6-phosphate, 5 mM NaHCO3, 0.1 mM EDTA, 5 mM DTT). The buffer-exchanged sample was eventually concentrated by ultrafiltration (30 kDa cutoff, Millipore).
Activity of purified PPDK was measured according to Salahas et al., Doyle et al. in a 96 well microtiter plate layout by a coupled spectrophotometrical assay. In this assay, the carboxylation of PEP by PEPC is linked to the oxidation of NADH by NADH-malate dehydrogenase (NADH-MDH). PEP is formed by PPDK via ATP-driven phosphorylation of pyruvate. Eventually, the consumption of one molecule NADH is equivalent to the formation of one molecule of PEP by PPDK. The assay was performed in a sample volume of 100 μL at 30°C in a M200 plate reader (Tecan, Crailsheim, GER). 0.2 μM PPDK were mixed with 0.2 mM NADH, 2.5 mM sodium pyruvate, 0.8 U bacterial PEPC (Sigma-Aldrich, Darmstadt, GER) and 2 U NADH-MDH (Sigma-Aldrich). The reaction mixture was filled up to a total volume of 100 μL per sample with assay buffer (100 mM Tris/HCl pH 8.0, 10 mM MgCl2, 2.5 mM KH2PO4, 6 mM glucose-6-phosphate, 5 mM NaHCO3, 0.1 mM EDTA, 5 mM DTT). PPDK was pre-incubated for 20 min at 30°C to ensure full activity. Inhibitors were dissolved in water free dimethyl sulfoxide (DMSO) with a final concentration of 10 mM and were added prior to adjusting the final sample volume. To account for possible effects of DMSO on PPDK activity, the solvent was added to the controls in an amount equal to the largest DMSO concentration used in the experiments. Incubation time of the final sample mixture including inhibitors and PPDK was 15 min. Initial comparative screening was perfomed using 100 μM of each compound. The absorbance at 340 nm was recorded for 30 s with an interval of 300 ms. […] A four-parameter log-logistic dose-response curve was then globally fitted to the individual replicates using the R software collection and the R package “drc” [28] as proposed by assessment of Akaike’s information criterion (AIC). PPDK was incubated for 10 min with the inhibitors before each measurement. To exclude PEPC or NADH-MDH inhibition by the selected compounds, the initial screening assay was repeated in triplicates for those compounds without adding PPDK and starting the reaction by injection of PEP instead of ATP.

Experiment [2] has as its target receptor tyrosine kinases. Details: method as in PMID 16648571. The following applies: ATP-competitive; cited from earlier work.
Another experiment concerns Zea mays leaf slices. The experiment can be described thus: Inhibition of oxygen evolution during C4 photosynthesis, leaf slices, Clark-type O2 electrode. The settings on record: for inhibition at 20 µg/mL: 20 μg mL^−1; for inhibition at 40 µg/mL: 40 μg mL^−1. In kind it is cell-based. The procedure: Oxygen (O2) evolution, driven by the C4 acid cycle, was measured according to refs [21, 22, 31]. The reaction chamber of a Clark-type O2 electrode (Hansatech, Norfolk, UK) was filled with 1 mL of degassed buffer containing 0.33 M sorbitol, 2.5 mM NaH2PO4, 2.5 mM MgCl2, 25 mM HEPES/KOH pH 7.5, 50 μM MnCl2 and 2.5 mM dithiothreitol (DTT). An area sized approx. 1 cm^2 was cut from a mature leaf of the C4 model plant Zea mays and processed into slices of ∼ 1 mm width. The leaf slices were added to the electrode chamber and the recording of O2 evolution was started while keeping the chamber in the dark. The O2 evolution rate recorded in this period was later substracted from the subsequently recorded rates to account for the electrode drift. Once the system had stabilized, the chamber was illuminated using a Schott KL 1500 electronic light source. Again, the system was given time to stabilize before the C4-driven O2 evolution was initiated by the addition of first NaHCO3 and then pyruvate in final concentrations of 4 mM each. […] All measurements were done in triplicates.
Directly following the measurement, leaf slices were removed from the chamber and transferred to 1 mL of 80% acetone (v/v) for chlorophyll extraction. The samples were kept at 4°C in the dark for 48 h.

A further experiment concerns Zea mays PPDK. Also noted: method as in earlier work. The settings on record: PPDK from leaf extracts; ref 21 (Haines et al.); cited from earlier work.

SMILES strings stand for the structures. “Also recorded” adds a separate entry of the source.

On to `Cc1ccc(F)c(NC(=O)Nc2ccc(-c3cccc4[nH]nc(N)c34)cc2)c1` [ABT-869], for which, in experiment [1], the IC50 (usually the concentration needed to halve the response being measured) was 11.2 ± 0.24 µM and the “Residual PPDK activity relative to DMSO-treated controls” value is “below 30%”. Moreover, the IC50 in experiment [2] is 0.004 µM.

In the case of `CN1C(=O)C(c2c[nH]c3ccccc23)=C(c2c[nH]c3ccccc23)C1=O` [bisindolylmaleimide V], the “Residual PPDK activity relative to DMSO-treated controls” value in experiment [1] was determined as 15%.

With `CN(C)CC1CCn2c(c(C3=C(c4cn(C)c5ccccc45)C(=O)NC3=O)c3ccccc32)C1` (stereo not shown) [BIM XI, bisindolylmaleimide XI], the “Effect on PPDK activity” value in experiment [1] (initial screening) is on record as “did not show any effect; also recorded: no effect”.

For `O=C1NC(=O)C(c2c[nH]c3ccccc23)=C1c1c[nH]c2ccccc12` [BIM IV, bisindolylmaleimide IV], in experiment [1], the IC50 was 0.76 ± 0.13 µM. In the experiment with Zea mays leaf slices, at 20 µg/mL the inhibition was 20% and 40 µg/mL produced 36% inhibition.

As for `COc1ccc2c(c1)c(C1=C(c3c[nH]c4ccccc34)C(=O)NC1=O)cn2CCCN(C)C` [Go6983], inhibition in experiment [1] was half-maximal at 1.5 ± 0.6 µM (IC50). In addition, in the experiment with Zea mays leaf slices, 20 µg/mL produced 19% inhibition and at 40 µg/mL the inhibition was 29%.

In the case of `C=C1CCC[C@H]2[C@](C)(CC3=C(O)C(=O)C=C(OC)C3=O)[C@@H](C)CC[C@]12C` [ilimaquinone], the IC50 in experiment [1] is 740 ± 566 µM; in the experiment with Zea mays PPDK, 292 ± 23 µM.
